In US8222414B2, “Indole compounds as an inhibitor of cellular necrosis” (LG Life Sciences Ltd., priority 2007, dated 2012):

Test system: primary hepatocytes isolated from rats
Experiment: Cell protective effects against doxorubicin in hepatocytes (WST-1 cell viability)
Type: cell-based
Conditions: primary rat hepatocytes pretreated with compound for 30 min, then doxorubicin, viability by WST-1 after 24-48 h
Description: Various endogenous/exogenous attacks on the cells trigger the mechanisms of cell death which is broadly classified into two types, i.e. apoptosis or necrosis. Using these cell death mechanisms, in the present experimental example, primacy hepatocytes isolated from rats were treated with drugs which were clinically shown to result in serious side-effects of hepatocyte toxicity or various chemicals which derive cell death, and the compounds synthesized in the Examples were estimated for their hepatocyte protective effects, after 24-48 h. The substances used to derive hepatocyte death include CCl4, ActD, H2O2, doxorubicin, anti-Fas Ab/Actinomycin D, acetaminophen, EtOH, CdCl2, palmitate, stearate, cyclophosphamide, terfenadine, diclofenac, simvastatin, and adefovir. Primary hepatocytes were isolated using the method of Seglen P O (Experimental Cell Research 74 (1972) pp 450-454). Briefly, hepatocytes were isolated according to the two-step collagenase perfusion method, and dead cells were removed by low speed (500 rpm) centrifugation for 10 min using percoll gradient (Kreamer B L etc, In Vitro Cellular & Developmental Biology 22 (1986) pp 201-211). During this step, the viability of cells was maintained 90% or above. The cells were suspended in HepatoZYME media (Gibco BRL), and the number of cells was counted. 1.5×10^4 cells in 100 μl were placed into the collagen-coated 96-well plate (BD biocoat), and adhered on the bottom for 3-4 h.
In order to assess the hepatocyte protective effect, above adhered cells were pretreated with the Example compounds for 30 min. At this time, the concentration of the Example compounds were serially diluted by 2-fold or 3-fold over 5 steps starting from 30 uM, 10 uM or 1 uM depending on the experiments, and the final concentration of DMSO was adjusted to 0.2%. 30 min after the treatment by compounds, cells were treated by the substances deriving hepatocyte death or hepatotoxic drugs at the concentrations indicated in Table 1. After 24-48 h, the viability of cells was determined to estimate the hepatocyte protective effects. The viability of cells was determined using WST-1 (MK-400, […]) method by the absorbance at 440 nm. Hepatocyte protective effects of the Example compounds were represented by “EC50” which was calculated from measured values. “EC50” herein means the concentration of the compound at which 50% of maximum protective effect is observed in the experiment.

**Q.** With `N[C@H]1CCN(CC[C@H]2CSC(c3cc4cc(Oc5ccccc5)cc(NC5CCCC5)c4[nH]3)=N2)C1` [Example 238, (5-Phenoxy-2-{(S)-4-[(3S)-3-(amino)pyrrolidin-1-yl-ethyl]-4,5-dihydro-thiazol-2-yl}-1H-indol-7-yl)-cyclopentyl-amine] as the compound, how does the EC50 (Hepatocyte) read?
**A.** 0.33 µM

**Q.** With `O=C(O)C[C@H]1CSC(c2cc3cccc(NCC4CCCCO4)c3[nH]2)=N1` (stereo partly drawn) [Example 10, 2-[(S)-2-(7-(tetrahydropyran-2-yl)methylamino-1H-indol-2-yl)-4,5-dihydro-thiazol-4-yl]-acetic acid] as the compound, how does the EC50 (Hepatocyte) read?
**A.** 0.6 µM

**Q.** Which EC50 (Hepatocyte) does the source give for `Fc1cc(NC2CCCC2)c2[nH]c(C3=N[C@H](CCN4CCOCC4)CS3)cc2c1` [Example 201, (5-Fluoro-2-{(R)-4-[(morpholin-4-yl)-ethyl]-4,5-dihydro-thiazol-2-yl}-1H-indol-7-yl)-cyclopentyl-amine] here?
**A.** 0.33 µM

**Q.** `COC(=O)C[C@@H]1CSC(c2cc3cc(CS(C)(=O)=O)cc(NC4CCCC4)c3[nH]2)=N1` [Example 97, [(R)-2-(5-methanesulfonylmethyl-7-cyclopentylamino-1H-indol-2-yl)-4,5-dihydro-thiazol-4-yl]-acetic acid methyl ester] was tested. Which EC50 (Hepatocyte) did it give?
**A.** 4.1 µM

**Q.** With `O=C(O)C[C@@H]1CSC(c2cc3cc(Br)cc(NC4CCCC4)c3[nH]2)=N1` [Example 68, [(R)-2-(5-bromo-7-cyclopentylamino-1H-indol-2-yl)-4,5-dihydro-thiazol-4-yl]-acetic acid] as the compound, how does the EC50 (Hepatocyte) read?
**A.** 0.49 µM

**Q.** With `O=C(O)[C@@H]1CSC(c2cc3cccc(NC4CCOCC4)c3[nH]2)=N1` [Example 78, [(R)-2-(7-(tetrahydropyran-4-yl)amino-1H-indol-2-yl)-4,5-dihydro-thiazol-4-yl]-carboxylic acid] as the compound, how does the EC50 (Hepatocyte) read?
**A.** 29.4 µM

**Q.** For `Clc1cc(NC2CCCC2)c2[nH]c(C3=N[C@H](CCCN4CCOCC4)CS3)cc2c1` [Example 222, (5-Chloro-2-{(R)-4-[(morpholin-4-yl)-propyl]-4,5-dihydro-thiazol-2-yl}-1H-indol-7-yl)-cyclopentyl-amine], which EC50 (Hepatocyte) is on record?
**A.** 0.18 µM

**Q.** `OC[C@@H]1CSC(c2cc3cc(Oc4cccnc4)cc(NC4CCCC4)c3[nH]2)=N1` [Example 61, [(R)-2-(5-(pyridin-3-yl)oxy-7-cyclopentylamino-1H-indol-2-yl)-4,5-dihydro-thiazol-4-yl]-methanol] was tested. Which EC50 (Hepatocyte) did it give?
**A.** 0.78 µM

**Q.** For `c1ccc(Oc2cc(NCC3CCOCC3)c3[nH]c(C4=N[C@@H](CCN5CCOCC5)CS4)cc3c2)cc1` [Example 247, (5-Phenoxy-2-{(S)-4-[morpholin-4-yl-ethyl]-4,5-dihydro-thiazol-2-yl}-1H-indol-7-yl)-(tetrahydropyran-4-yl)methyl-amine], which EC50 (Hepatocyte) is on record?
**A.** 0.86 µM

**Q.** Which EC50 does the source give for `OCC[C@@H]1CSC(c2cc3cc(Cl)cc(NC4CCOCC4)c3[nH]2)=N1` [Example 67, [(R)-2-(5-chloro-7-(tetrahydropyran-4-yl)amino-1H-indol-2-yl)-4,5-dihydro-thiazol-4-yl]-ethanol] here?
**A.** > 1 µM

**Q.** `CC(C)CN(CC(C)C)c1cc(Oc2ccccc2)cc2cc(C3=N[C@@H](CCN4CCCC4)CS3)[nH]c12` [Example 228, (5-Phenoxy-2-{(S)-4-[(pyrrolidin-1-yl)-ethyl]-4,5-dihydro-thiazol-2-yl}-1H-indol-7-yl)-diisobutyl-amine] was tested. Which EC50 (Hepatocyte) did it give?
**A.** 0.13 µM

**Q.** How did the EC50 (Hepatocyte) turn out when `c1ccc(Oc2cc(NC3CCCC3)c3[nH]c(C4=N[C@H](CCN5CCCC5)CS4)cc3c2)cc1` [Example 246, (5-Phenoxy-2-{(R)-4-[pyrrolidin-1-yl-ethyl]-4,5-dihydro-thiazol-2-yl}-1H-indol-7-yl)-cyclopentyl-amine] was run?
**A.** 0.35 µM

**Q.** How did the EC50 (Hepatocyte) turn out when `O=C(O)C[C@H]1COC(c2cc3cc(Cl)cc(NC4CCCC4)c3[nH]2)=N1` [Example 121, [(S)-2-(5-chloro-7-cyclopentylamino-1H-indol-2-yl)-4,5-dihydro-oxazol-4-yl]-acetic acid] was run?
**A.** 0.47 µM

**Q.** How did the EC50 (Hepatocyte) turn out when `Cc1cc(NC2CCOCC2)c2[nH]c(C3=N[C@@H](CC(=O)O)CO3)cc2c1` [Example 120, [(S)-2-(5-methyl-7-(tetrahydropyran-4-yl)amino-1H-indol-2-yl)-4,5-dihydro-oxazol-4-yl]-acetic acid] was run?
**A.** 1.12 µM

**Q.** `O=C(O)C[C@H]1CSC(c2cc3cc(Oc4ccccc4)cc(NC4CCOCC4)c3[nH]2)=N1` [Example 16, [(S)-2-(5-phenoxy-7-(tetrahydropyran-4-yl)amino-1H-indol-2-yl)-4,5-dihydro-thiazol-4-yl]-acetic acid] was tested. Which EC50 (Hepatocyte) did it give?
**A.** 1.29 µM

**Q.** With `Cc1cc(NC2CCC(F)(F)CC2)c2[nH]c(C3=N[C@@H](CCN4CCOCC4)CS3)cc2c1` [Example 251, (5-Methyl-2-{(S)-4-[morpholin-4-yl-ethyl]-4,5-dihydro-thiazol-2-yl}-1H-indol-7-yl)-4,4-difluorocyclohexyl-amine] as the compound, how does the EC50 (Hepatocyte) read?
**A.** 0.3 µM

**Q.** How did the EC50 turn out when `Fc1ccccc1N1CCN(CC[C@H]2CSC(c3cc4cc(Oc5ccccc5)cc(NC5CCCC5)c4[nH]3)=N2)CC1` [Example 236, (5-Phenoxy-2-{(S)-4-[(2-fluorophenyl)piperazine-ethyl]-4,5-dihydro-thiazol-2-yl}-1H-indol-7-yl)-cyclopentyl-amine] was run?
**A.** 0.16 µM

**Q.** Which EC50 (Hepatocyte) does the source give for `c1cc(NC2CCCC2)c2[nH]c(C3=NCCS3)cc2c1` [Example 1, Cyclopentyl-[2-(4,5-dihydro-1,3-thiazol-2-yl)-1H-indol-7-yl]-amine] here?
**A.** > 1 µM

**Q.** `COC(=O)C[C@@H]1CSC(c2cc3cc(CN4CCCC4)cc(NC4CCCC4)c3[nH]2)=N1` [Example 40, [(R)-2-(5-(pyrrolidin-1-yl)methyl-7-cyclopentylamino-1H-indol-2-yl)-4,5-dihydro-thiazol-4-yl]-acetic acid methyl ester] was tested. Which EC50 (Hepatocyte) did it give?
**A.** 15.6 µM

**Q.** For `N[C@H]1CCN(CC[C@@H]2CSC(c3cc4cc(Cl)cc(NC5CCCC5)c4[nH]3)=N2)C1` [Example 176, {2-[(R)-4-((S)-3-amino-pyrrolidin-1-ylethyl)-4,5-dihydro-thiazol-2-yl]-5-chloro-1H-indol-7-yl}-cyclopentyl-amine], which EC50 (Hepatocyte) is on record?
**A.** > 1 µM

**Q.** For `Cc1cc(NC2CCC2)c2[nH]c(C3=N[C@@H](CC(=O)O)CS3)cc2c1` [Example 19, [(S)-2-(5-methyl-7-cyclobutylamino-1H-indol-2-yl)-4,5-dihydro-thiazol-4-yl]-acetic acid], which EC50 (Hepatocyte) is on record?
**A.** 0.35 µM

**Q.** With `Cc1cc(NC2CCCC2)c2[nH]c(C3=N[C@@H](CC(=O)O)CO3)cc2c1` [Example 119, [(S)-2-(5-methyl-7-cyclopentylamino-1H-indol-2-yl)-4,5-dihydro-oxazol-4-yl]-acetic acid] as the compound, how does the EC50 (Hepatocyte) read?
**A.** 0.17 µM

**Q.** For `O=C(O)CC[C@@H]1CSC(c2cc3cc(F)cc(NC4CCCC4)c3[nH]2)=N1` [Example 109, 3-[(R)-2-(5-fluoro-7-cyclopentylamino-1H-indol-2-yl)-4,5-dihydro-thiazol-4-yl]-propionic acid], which EC50 (Hepatocyte) is on record?
**A.** 0.61 µM

**Q.** How did the EC50 (Hepatocyte) turn out when `CCOc1cc(NC2CCCC2)c2[nH]c(C3=N[C@@H](CC(=O)OC)CS3)cc2c1` [Example 46, [(S)-2-(5-ethoxy-7-cyclopentylamino-1H-indol-2-yl)-4,5-dihydro-thiazol-4-yl]-acetic acid methyl ester] was run?
**A.** 0.4 µM

**Q.** Which EC50 (Hepatocyte) does the source give for `OC[C@@H]1CSC(c2cc3cc(Oc4cccnc4)cc(NC4CCOCC4)c3[nH]2)=N1` [Example 62, [(R)-2-(5-(pyridin-3-yl)oxy-7-(tetrahydropyran-4-yl)amino-1H-indol-2-yl)-4,5-dihydro-thiazol-4-yl]-methanol] here?
**A.** 3.77 µM

**Q.** `O=C(C1CCCO1)N1CCN(CC[C@H]2CSC(c3cc4cc(Oc5ccccc5)cc(NC5CCCC5)c4[nH]3)=N2)CC1` (stereo partly shown) [Example 234] was tested. Which EC50 did it give?
**A.** 0.09 µM

**Q.** With `CN(c1cc(F)cc2cc(C3=N[C@H](CO)CS3)[nH]c12)C1CCCC1` [Example 45, {(R)-2-[7-(methyl-cyclopentyl)amino-5-fluoro-1H-indol-2-yl]-4,5-dihydro-1,3-thiazol-4-yl}-methanol] as the compound, how does the EC50 read?
**A.** 1.32 µM

**Q.** With `Clc1cc(NC2CCOCC2)c2[nH]c(C3=N[C@H](CCN4CCNCC4)CS3)cc2c1` [Example 193, (5-Chloro-2-{(R)-4-[(piperazin-1-yl)-ethyl]-4,5-dihydro-thiazol-2-yl}-1H-indol-7-yl)-(tetrahydro-pyran-4-yl)-amine] as the compound, how does the EC50 (Hepatocyte) read?
**A.** 0.65 µM

**Q.** Which EC50 (Hepatocyte) does the source give for `CC(=O)Nc1cc(NC2CCCC2)c2[nH]c(C3=N[C@H](CO)CS3)cc2c1` [Example 38, [(R)-2-(5-acetylamino-7-cyclopentylamino-1H-indol-2-yl)-4,5-dihydro-thiazol-4-yl]-methanol] here?
**A.** 2 µM

**Q.** `O=C(O)C[C@H]1CSC(c2cc3cc(Cl)cc(NCC4CCOCC4)c3[nH]2)=N1` [Example 18, [(S)-2-(5-chloro-7-(tetrahydropyran-4-yl)methylamino-1H-indol-2-yl)-4,5-dihydro-thiazol-4-yl]-acetic acid] was tested. Which EC50 (Hepatocyte) did it give?
**A.** 2.42 µM

**Q.** For `Clc1cc(NC2CCOCC2)c2[nH]c(C3=N[C@@H](CCN4CCN(c5ccccn5)CC4)CS3)cc2c1` [Example 254, (5-Chloro-2-{(S)-4-[1-(pyridin-2-yl)piperazin-4-yl-ethyl]-4,5-dihydro-thiazol-2-yl}-1H-indol-7-yl)-(tetrahydropyran-4-yl)-amine], which EC50 (Hepatocyte) is on record?
**A.** 1 µM
